Measurements taken from patent publication US9808504B2, “Immunogenic epitopes as targets for universal cancer vaccines” (Yale University, priority 2009, dated 2017).

What follows are sequences tested on freshly isolated human PBMCs (assay: Detection of OCT4 reactive T cells in fresh PBMCs: IP10 in culture supernatant by Luminex). Conditions: PBMCs of 10 healthy donors cultured with individual peptides, 48 h.
Format: cell-based

Row | Sequence | reactivity to individual peptides (fine specificity)
1 | NMCKLRPLLQKWV [compound 54] | hot-spots of promiscuous reactivity
2 | VWFCNRRQKGKRSSS [compound 75] | hot-spots of promiscuous reactivity
3 | VQARKRKRTSIENRV [compound 62] | hot-spots of promiscuous reactivity
4 | LSFKNMCKLRPLLQK [compound 53] | hot-spots of promiscuous reactivity
5 | LQQISHIAQQLGLEK [compound 70] | hot-spots of promiscuous reactivity
6 | DVVRVWFCNRRQKGK [compound 74] | hot-spots of promiscuous reactivity
7 | AETLVQARKRKRTSI [compound 61] | hot-spots of promiscuous reactivity
8 | SHIAQQLGLEKDVVR [compound 71] | hot-spots of promiscuous reactivity
9 | NRVRGNLENLFLQCP [compound 65] | hot-spots of promiscuous reactivity
10 | RQKGKRSSSDYAQR [compound 77] | hot-spots of promiscuous reactivity
11 | NLFLQCPKPTLQQIS [compound 67] | hot-spots of promiscuous reactivity
12 | AQQLGLEKDVVRVWF [compound 72] | hot-spots of promiscuous reactivity
13 | CKLRPLLQKWVEEA [compound 55] | hot-spots of promiscuous reactivity
14 | EICKAETLVQARKRK [compound 60] | hot-spots of promiscuous reactivity
15 | GLEKDVVRVWFCNRR [compound 73] | hot-spots of promiscuous reactivity
16 | KRKRTSIENRVRGNL [compound 63] | hot-spots of promiscuous reactivity
17 | NRRQKGKRSSSDYA [compound 76] | hot-spots of promiscuous reactivity
